Earlier results on six compounds are cited in patent publication US20140303119A1, “METHODS, APPARATUS, AND COMPOUNDS FOR THE TREATMENT OF CENTRAL RETINAL VEIN OCCLUSION AND OTHER CONDITIONS” (DiLorenzo Biomedical, LLC, priority 2013, published 2014).

For series [1], the system named is thrombosis of the central retinal vein. The settings on record: given intravenously, small randomized clinical study.
Series [2] deals with retinal vein occlusion. The settings on record: patients with retinal vein occlusion, troxerutin versus placebo.
In series [3] the test system is CRVO. The settings on record: review statement, evidence limited (level B, III).
In series [4] the test system is central retinal vein occlusion.
For series [5], the system named is patients with CRVO. As to conditions: 96 patients with CRVO.

With `COC(=O)[C@H](c1ccccc1Cl)N1CCc2sccc2C1` [Clopidrogel, (+)-(S)-methyl 2-(2-chlorophenyl)-2-(6,7-dihydrothieno[3,2-c]pyridin-5(4H)-yl)acetate], the “incidence of blood disorders compared with ticlodipine” value (no need for regular monitoring) is on record as “reduced incidence of blood disorders”.

With `CCCCC[C@H](O)/C=C/[C@@H]1[C@H]2C/C(=C/CCCC(=O)O)O[C@H]2C[C@H]1O` [Prostacyclin], in series [1], the “progression to neovascularization versus placebo” value was “no significant difference” and the “visual acuity versus placebo” value is “no significant difference”.

For `Clc1ccccc1CN1CCc2sccc2C1` [Ticlodipine], the “incidence of very serious hematological toxicity, including neutropenia, thrombocytopenia, and aplastic anemia” value (patients, requires regular monitoring) was 0.5%-3%.

Turning to `C[C@@H]1O[C@@H](OC[C@H]2O[C@@H](Oc3c(-c4ccc(OCCO)c(OCCO)c4)oc4cc(OCCO)cc(O)c4c3=O)[C@H](O)[C@@H](O)[C@@H]2O)[C@H](O)[C@H](O)[C@H]1O` [troxerutin], in series [2], the “macular edema versus placebo” value is given as “improvement”, the “retinal circulation time versus placebo” value is reported as “improvement” and the “visual acuity versus placebo” value was “improvement”. Moreover, the “outcome of CRVO” value in series [3] is recorded as “trend for improvement”.

Consider Streptokinase, for which the “patients showing deterioration in vision” value in series [4] (treated group (continuous infusion followed by warfarin), control group 12 of 20) is 5 of 20. For the same compound, the “patients experiencing massive vitreous hemorrhage with persistence of blindness in those eyes” value in series [4] (treated group, within 72 hours) is listed as 3 of 20.

Turning to “Tissue plasminogen activator (tPA): Tissue plasminogen activator, fibrinolytic therapy”, in series [5], the fatal stroke is recorded as 1 patient and the severe intraocular bleeding is 3 patients.
